Results as given in patent US11077214B2, “Multimodal CT/optical agents” (University Health Network, priority 2013, dated 2021).

Assay: In vitro photostability of ICG fluorescence at room temperature
Format: physicochemical
Conditions: 3 days at room temperature
Description: The size of the liposome samples was measured using dynamic light scattering (DLS) (90Plus, Brookhaven, Holtsville, N.Y.). The iodine and ICG concentrations were determined using an absorbance assay at a wavelength of 245 nm for iodine and 785 nm for ICG (Cary 50 UV/VIS Spectrophotometer, Varian Inc., Palo Alto, Calif.). The lipid components of the liposome sample was analyzed using ultra performance liquid chromatography (UPLC, ACQUITY, Waters, Milford, Mass.) equipped with an evaporative light scattering detector (ELSD). The in vitro fluorescence measurements were performed using a 2D fluorescence imager (excitation/emission: 735/820 nm, CRI Maestro, Perkin Elmer, Waltham, Mass.).
Free ICG diluted in water, a 1:10 ethanol/water mixture and a 0.5:10 iohexol/water mixture yielded only 8±2%, 3±1%, 7±2% of its original fluorescence, respectively. […] The photostability of the encapsulated ICG was investigated by incubating the liposome samples and the free ICG solutions (at 7 physiologically relevant concentrations ranging from 0.5 to 2.5 μg/mL) at room temperature over a 21-day period.

CC1(C)C(/C=C/C=C/C=C/C=C2\N(CCCCS(=O)(=O)O)c3ccc4ccccc4c3C2(C)C)=[N+](CCCCS(=O)(=O)[O-])c2ccc3ccccc3c21 [Free ICG, indocyanine green]
retained original fluorescence signal (diluted in 0.5:10 iohexol/water mixture): 7±2%
retained original fluorescence signal (diluted in 1:10 ethanol/water mixture): 3±1%
retained original fluorescence signal (diluted in water): 8±2%
